Measured values taken from patent US8198322B2, “Apoptotic and anti-tumor activities of metallo-salens” (Board of Regents, The University of Texas System, priority 2008, dated 2012).

How the values were obtained:
MCF-7 cells [1] = test: Cytotoxicity assay (IC50 measurement, MTT); type: cell-based, human; details: MCF-7, 96 hrs, read-out: IC50 values for different complexes in MCF-7 cells
Method: Cytotoxicity assay (IC50 measurement): The cytotoxicity of Fe(III)-salen and its derivatives was determined by using MTT assay as described previously^42. In brief, approximately 10,000 MCF-7 cells were seeded into each well of a 96 well micro titer plate and incubated 24 hrs in presence of 150 μL DMEM. An additional 50 μL DMEM containing required amount of each metallo-salen to obtain 0.05 to 60 μM final concentration (in 200 μL final volume) in 8 replicate wells were added. Control wells were treated with equivalent amount of DMSO. After 96 hrs of incubation, 20 μL of MTT (5 mg/mL) was added into each well and cell viability was assayed by measuring the formazan absorption at 560 nm as described above. The absorbance (at 560 nm) values were plotted against concentration of metallo-salens to determine the IC50. The studies were repeated twice with 8 replicates each time.
The concentration of the metal-complexes at which the conversion of MTT to formazan by viable cells is reduced by 50% compared to control cells is defined as the IC50. The percent of cell survival relative to the control cells were plotted as a function of concentration of the metallo-salen derivatives.

MCF-7 cells [2] = test: Cell viability assay (MTT, DIC microscopy) at 20 μM; type: cell-based, human; design: key to Summary of cell viability activities (active/inactive): Y and N indicates active and inactive compounds respectively; Y and N indicates active and inactive compounds respectively; details: for effect on cell viability (in words): up to 96 hrs; for Summary of cell viability activities (active/inactive): MCF-7 cells, 20 μM, 24-96 hrs, MTT
Method: (A-F): MCF-7 cells were treated with 20 μM metallo-salens and incubated for varying time periods (24-96 hrs). Viable cells were quantified using MTT assay. The percent viable cells (relative to control, treated with equivalent amount of DMSO) were plotted as a function of time for each compound. This experiment was repeated twice with 8 replicate treatments each time. Bars indicates standard errors of mean (SEM). Curves 1-42 in FIGS. 2A-2F, represent the viability curves for compounds 1-42 respectively. (A′-F′) DIC images of the corresponding MCF-7 cells that were treated with DMSO (control panel), or with 20 μM Mn(III)- and Fe(III)-salen complexes for 72 hrs showing the visual effects on cellular morphology and growth/death.
Cell viability assay: Approximately 10,000 MCF-7 cells were seeded into each well of a 96 well micro titer plate and incubated 24 hrs in presence of 150 μL DMEM. An additional 50 μL DMEM containing required amount of each metallo-salen to obtain 20 μM final concentrations (in 200 μL final volume) in 8 replicate wells were added. Control wells were treated with equivalent amount of dimethylsulfoxide (DMSO). The viability of the cells was assayed at 24, 48, 72 and 96 hrs post treatment by using both microscopic observation and MTT assay. For microscopic observation cells were stained with trypan blue for at least 10 minute and observed under Differential Interference Contrast (DIC) setting of a fluorescence microscope (Nikon Eclipse TE2000-U, Japan). The MTT assay was performed as described previously^42. In brief, 20 μL MTT (5 mg/ml in PBS) was added into each wells and incubated for 2 hrs under normal growth condition to allow the viable cell to convert MTT to formazan. Then the media was discarded and formazan crystals were dissolved by adding 100 μL of DMSO and incubating 2 hrs with continuous shaking. The absorbance of the lysates were directly measured at 560 nm using a micro plate reader (Fluostar-omega, BMG Labtech). The absorbance values (which are proportional to the viable cell) are plotted as a function of time. The studies were repeated twice with 8 replicates each time.
The inventors studied the effect of Mn(III)-salen and Fe(III)-salen derivatives on the cell viability of cultured breast cancer cells MCF-7 in order to investigate the biochemical effects of the derivatives. The cells were incubated alone or with 20 μM of each of the metallo-salen derivatives separately (compounds 1-45) for varying time periods (0-96 hrs). The viable cells were quantified using MTT assay and the percent of cell survived (relative to the control untreated cells) were plotted against time (FIGS. 2A-2F).

[3] = test system: colon cancer xenograft (CCL228 cells); test: Colon cancer xenograft experiment; type: in vivo; details: Athymic nude nu/nu mice, intraperitoneal, 10 mg/kg, twice a week
Method: Athymic nude nu/nu mice carrying the colon cancer xenograft were administered with 10 mg/kg of 3,3′-dimethoxy Mn(III)-salen (compound 6), 3,3′-dihydroxy Mn(III)-salphen (compound 9) and 3,3′-dihydroxy Mn(III)-salnaphen (compound 16) at 4 days interval, for over a period of 21 days. Tumor diameters were measured using a slide caliper prior to each administration and plotted (left panel). Bar indicated standard deviation (3 replicate experiments).
All the animal experiments were carried out using the IACUC approved protocol. For examining the efficacies of metallo-salen complexes, the inventors administered selected metallo-salen complexes in PBS intraperitoneally on Athymic nude nu/nu mice (Harlan) carrying the colon cancer xenografts. In brief, 2×10^6 human colon cancer cells (CCL228 cell in 100 μl of PBS) were injected subcutaneously (near the right back limb). Animals were examined daily for signs of tumor growth and behavior. Once the tumor size reached ˜25 mm^2 (2 to 3 weeks after injection of cells) the inventors administered the metallo-salen complexes intraperitoneally (in PBS solution, twice in a week, in three parallel replicates). Control mice were injected with equal volume of the diluents (PBS) alone. Prior to every new treatment with metallo-salen complexes, bi-dimensional measurements were carried out using calipers and cross-sectional area (tumor size) and data were plotted (FIG. 8A).
Xenograft experiment: To test the efficacy in controlling the tumor growth, the inventors administered compound compounds, 6, 9 and 16, intraperitoneally to six week old Athymic nude nu/nu mice carrying the colon cancer xenograft. In brief, 2×10^6 human colon cancer cells (CCL228 cell in 100 μl of PBS) were injected subcutaneously (near the right back limb). Animals were examined daily for signs of tumor growth and behavior. Once the tumor size reached ˜25 mm^2 (2 to 3 weeks after injection of cells) the inventors administered compounds 6, 9, and 16 intraperitoneally (separately in PBS solution, twice a week, 10 mg/kg dose). Every study was performed in three parallel replicates. […]

Animal toxicity = type: in vivo; details: C57B mice, intraperitoneal, 5, 10 and 20 mg/kg, twice a week for 4 weeks
Method: The inventors intraperitoneally administered the Mn(III)-salen complexes (in PBS) at three different dozes (5, 10 and 20 mg/kg of mice, 6 weeks old normal C57B mice). The mice were treated twice a week for 4 weeks. After treatment, sign of toxicity were monitored (such as weight loss, mobility), animal behavior and health on a daily basis.

[4] = test system: MCF-7 and CCL228 cancer cells over MCF-10 normal breast epithelial cells; test: IC50 comparison of cancer versus normal cell lines (MTT, FIG. 4); type: cell-based, human; details: ratio of IC50 values
Method: IC50 values for each biochemically compounds were determined using MTT assay in three different cell lines that include MCF-7 (breast cancer), CCL228 (colon cancer) and MCF-10 (normal breast epithelial cells). IC50 values were for comparison for each compound (compounds 1-45) as marked.
To study the anti-tumor drug potential of Mn(III)- and Fe(III)-metallo salen derivatives, the inventors analyzed IC50 values for the each of the active compounds towards different cancer as well as normal cells. The IC50 values for different active compounds (compounds 1-42) for three different cell lines, MCF-7 (breast cancer), CCL228 (colon cancer) and MCF-10 (non malignant breast cells), are plotted in the bar graph in FIG. 4.

Structure (SMILES)	IC50 (MCF-7 cells [1])	effect on cell viability (in words) (MCF-7 cells [2]; MCF-7, 20 μM)	Summary of cell viability activities (active/inactive) (MCF-7 cells [2])	tumor growth in colon cancer xenograft [3]	animal toxicity (Animal toxicity)	survival and body weight (Animal toxicity)	selectivity in killing cancer cells (MCF-7 and CCL228) over normal cells (MCF-10) [4]	time to induce similar extent (more than 80%) of cell death (MCF-7 cells [2]; MCF-7, 20 μM)
CC(=O)[O-].COc1ccc(C=NCCN=Cc2ccc(OC)cc2[O-])c([O-])c1.[Mn+3] [compound 6, 4,4′-Dimethoxysalen Mn(III) acetate]	12.3 µM	induced efficient cell death	Y (6)	complete arrest of tumor growth	did not have any significant animal toxicity	survived without significant loss of body weight		
CC(=O)[O-].[Mn+3].[O-]c1c(O)cccc1C=Nc1ccccc1N=Cc1cccc(O)c1[O-] [compound 9, 3,3′-Dihydroxysalphen Mn(III) acetate]	17.3 µM		Y (9)	complete arrest of tumor growth	did not have any significant animal toxicity	survived without significant loss of body weight		
CC(=O)[O-].[Mn+3].[O-]c1c(O)cccc1C=Nc1cc2ccccc2cc1N=Cc1cccc(O)c1[O-] [compound 16, 3,3′-Dihydroxysalnaphen Mn(III) acetate]	40.3 µM		Y (16)	tumor size were grown exponentially	did not have any significant animal toxicity	survived without significant loss of body weight		
COc1ccc(C=NCCN=Cc2ccc(OC)cc2[O-])c([O-])c1.[Cl-].[Fe+3] [compound 27, 4,4′-Dimethoxysalen Fe(III) chloride]	12.4 µM	highly effective in killing MCF-7 cells	Y (27)				about 4 fold	about 72 hrs
